This note sets out measurements from patent publication US10822376B2, “Biologically active peptides” (Baxalta Incorporated, priority 2008, dated 2020).

Where a SMILES comes first, the peptide text is derived from it. Bridges are numbered along the chain shown (N, C = ends). [ ]: non-standard residue; d: D form.

Test [1] has as its system human FVIII inhibited plasma. Briefly: Defined Intrinsic Thrombin Generation Assay (DITGA, triggered by FXIa and phospholipids). Conditions: for Activity in the Defined Intrinsic Thrombin Generation Assay: summary. The test is classed as biochemical. From the text:
(§1) The intrinsic pathway of thrombin generation may be assayed in a thrombin generation assay by including FXIa and phospholipids. In such an assay, which is similar to an activated partial thromboplastin time (aPTT) test, thrombin generation is solely directed through the intrinsic pathway, and is FVIII dependent. A suitable assay is the Defined Intrinsic Thrombin Generation Assay described below. Alternatively, by employing low concentrations of TF and phospholipids instead of FXIa and phospholipids, thrombin is generated by both the extrinsic (tissue factor) and the intrinsic pathways. This form of the thrombin generation assay is the more physiologic one, as both thrombin generation pathways are involved; it is partially FVIII dependent. A suitable assay is the Defined Dual-Pathway Thrombin Generation Assay.
The Defined Intrinsic Thrombin Generation Assay is performed as follows. FVIII activity of human plasma is inhibited by incubating (2 hours, 37° C.) 40 μl of human normal plasma with 10 μl heat inactivated anti-human FVIII plasma raised in goat (600 BU/ml, 6 hours incubated at 56° C.). […] Instead of FVIII-inhibited plasma, FVIII inhibitor patient plasma or several depleted plasmas can be used. The micro-plate is immediately put into a GENios Plus (Tecan) or Safire 2 (Tecan) fluorescence reader and the fluorescence signal (ex 340 nm/em 440 nm) is followed kinetically by reading the plate every 21 seconds.
For calculation of activity equivalent units experiments are performed with dilutions of Factor Eight Inhibitor Bypassing Agent (FEIBA, Baxter AG), Immunate (human FVIII, purified plasma derived) reference standard (Baxter AG) or Recombinate standard (human FVIII, purified recombinant, Baxter AG). A linear fit of the logarithm of FEIBA (FVIII) concentration plotted against thrombin generation time at peak thrombin results in a standard curve. With this curve FEIBA (FVIII) equivalent activity is calculated for a defined peptide concentration. […] Thus, where a concentration of 100 μM is given, the actual concentration in the final assay volume in 40 μM.
Compounds were screened using the “Defined intrinsic thrombin generation assay” in which thrombin generation was quantified in vitro in FVIII-inhibited human plasma in the presence of Factor XIa and phospholipid vesicles. Further compounds were screened in the above assay, and in the “Defined dual-pathway thrombin generation assay” using tissue factor and phospholipids instead of Factor XIa and phospholipids, as described in the specific description.
Various concentrations of each peptide were tested in the defined intrinsic thrombin generation assay using human FVIII inhibited plasma.

Test [2] has as its system FVIII-inhibited human normal plasma. Briefly: Defined Fibrin Deposition Assay (clotting time). The test is classed as biochemical. As to conditions: for Activity in the Defined Fibrin Deposition Assay: summary. The method, then: Another suitable assay to determine procoagulant activity, and particularly FVIII equivalent activity or FVIII inhibitor bypassing activity, is the Defined Fibrin Deposition Assay as described below. […] This assay is particularly useful for determining coagulation FVIII activity because it is conducted in the presence of FVIII-depleted or inhibited plasma.
The Defined Fibrin Deposition Assay is performed as follows. FVIII activity of human citrated plasma (Baxter AG) is first inhibited by incubating (2 hours, 37° C.) 100 μl of human normal plasma with 25 μl heat inactivated anti-human FVIII plasma (300 BU/ml, 6 hours incubated at 56° C.) raised in goat. For each sample to be tested, 125 μl of this FVIII-inhibited human normal plasma is transferred to a pre-warmed cuvette and a 75 μl dilution of a test compound or FEIBA reference standard (Baxter AG) is added. The dilutions of test compound or FEIBA reference standard contain 50 mM imidazole, 100 mM NaCl and 10 mg/ml human serum albumin (Sigma) pH 7.4. As a trigger and for providing procoagulant surfaces 100 μl of a mix of human factor XIa (3.13 nM, Enzyme Research Laboratories) and phospholipid (PL) vesicles (Phosphatidylcholine/Phosphatidylserine 60%/40%, 30 μM; Avanti Polar Lipids) in 50 mM Imidazole, 100 mM NaCl, 10 mg/ml human serum albumin (Sigma) pH 7.4 is included. After incubating for three minutes at 37° C. the coagulation reaction is started by adding 100 μl of 25 mM CaCl2. Clot formation is monitored by a coagulometer (KC10A, Amelung, Germany). In brief, each cuvette rotates slowly above the magnetic detection device and contains a small magnetic metallic ball. Whilst the plasma components remain in solution, the ball sits at the bottom of the cuvette. Over time, a clot begins to form, such that the ball starts to rotate with the developing clot in the rotating cuvette. The “clotting time” is recorded and is defined as the time from addition of the CaCl2) to the time that the developing clot begins to rotate the metallic ball. A standard curve for FEIBA reference standard dilutions is calculated by linear regression of logarithmic FEIBA concentrations (x-axis) against the clotting time (y-axis). Based on the clotting time of each compound concentration FEIBA equivalent activities are calculated according to this standard curve.
Thus, where a concentration of 100 μM is given, the actual concentration in the final assay volume in 25 μM.
Various peptides were tested for the ability to stimulate fibrin deposition in the Defined Fibrin Deposition Assay as described in the specific description.

In the next test the test system is FVIII deficient plasma. As to the kind of experiment: Defined Dual-Pathway Thrombin Generation Assay (DDPTGA, reagent C high), FVIII deficient plasma. Format: biochemical, human. As to conditions: FVIII deficient plasma.
Description: as §1
(§2) Preferably, Reagent C high is used.
(§3) Tissue factor dependency of peak thrombin generation and thrombin peak time was characterised in a composition containing a fixed concentration of phospholipid (namely 3.2 μM). Phospholipid dependency was characterised in a composition containing a fixed concentration of tissue factor (namely 7.2 μM). Peak time (time to peak thrombin generation) was dependent on the concentration of phospholipid or tissue factor. The final version of this assay is as described in the specific description, in which 10 μl reagent C high containing (32 μM phospholipid and 71.6 μM tissue factor) is used in a total volume of 100 μl.
(§4) Further studies were conducted using 3.2 μM phospholipid and 7.2 μM tissue factor in FVIII deficient or inhibited plasma, to characterise the effect on peak thrombin generation and thrombin peak time of various coagulation factor preparations. These studies provided a basis from which to compare the efficacy of the compounds in the assay. Briefly, rFVIII (Recombinate® FVIII from Baxter) was tested at 0, 5, 10, 20, 40 and 80 mU/ml in FVIII deficient plasma. FEIBA was tested at 0, 8, 16, 31, 63 and 125 mU/ml in FVIII inhibited plasma. FVIIa was tested at 0, 0.1, 0.4, 1.6, 6.3 and 25 nM in FVIII inhibited plasma. […] Peak thrombin increased and both the lag time and the thrombin peak time decrease.

For the next test, the system named is FVIII inhibited plasma. As to the kind of experiment: Defined Dual-Pathway Thrombin Generation Assay (DDPTGA, reagent C high), FVIII inhibited plasma. The test is classed as biochemical, human. As to conditions: for Peak IIa FEIBA EU / Peak IIa FVIIa EU / Peak Time FEIBA EU / Peak Time FVIIa EU: FVIII inhibited plasma.
Description: as §1, §2, §3, §4

In test [3] the test system is Factor X deficient human plasma. Briefly: DDPTGA (reagent B) in FX depleted plasma. As to conditions: compounds at 50 μM and 80, 90 or 100 μM.
Description: (§5) The Defined Dual-Pathway Thrombin Generation Assay is performed as described below, using a commercial test kit (Technothrombin TGA, Technoclone GmbH, Vienna, Austria). […] USA) are incubated four minutes at 37° C. Preferably, Reagent C high is used. Thrombin generation is started by the addition of 40 μl of one of several types of human plasma (37° C.). […] By deviating the original fluorescence data the amount of generated thrombin is calculated from a standard curve constructed using a concentration range of thrombin.
(§6) The in vitro thrombin generation assay based on the cleavage of Z-GGR-AMC to release the fluorophore AMC, described in the specific description, i.e. the Defined Dual-Pathway Thrombin Generation Assay was used to characterise the effect of the compounds in several depleted human plasmas. […] 10 μl peptide dilution, 40 μl TGA substrate and 40 μl plasma were used as described in the specific description.
(§7) The plasmas used in the experiments were fresh frozen and were deficient in Factor V, Factor VII/VIIa, Factor VIII, Factor X or Factor XI (George King Bio-Medical, Inc.). Residual coagulation factor levels of deficient plasmas were specified as less than 1%.
(§8) For each depleted plasma used in the experiments, compounds were tested at two concentrations, namely 50 μM and 80, 90 or 100 μM. A negative control was used, in which no test compound was included.
The test system of test [4] is Factor V deficient human plasma. Briefly: DDPTGA (reagent B) in FV depleted plasma. Conditions: compounds at 50 μM and 80, 90 or 100 μM.
Description: as §5, §6, §7, §8
Test [5] has as its system Factor XI deficient human plasma. As to the kind of experiment: DDPTGA (reagent B) in FXI depleted plasma. Conditions: compounds at 50 μM and 80, 90 or 100 μM.
Description: as §5, §6, §7, §8
For test [6], the system named is Factor VII/VIIa deficient human plasma. Briefly: DDPTGA (reagent B) in FVII depleted plasma. Conditions: compounds at 50 μM and 80, 90 or 100 μM.
Description: as §5, §6, §7, §8
For test [7], the system named is Factor VIII deficient human plasma. Briefly: DDPTGA (reagent B) in FVIII depleted plasma. Further: key: '+' means stimulates; '−' means does not stimulate. Format: biochemical. Conditions: compounds at 50 μM and 80, 90 or 100 μM.
Description: as §2

The test system of a further test is FIX−/− mice. Briefly: Tail clip assay in FIX−/− mice (blood loss, survival). The test is classed as in vivo, mouse. As to conditions: for Survival (%) 2 hours / Survival (%) 4 hours / Survival (%) 24 hours / Survival (%) 48 hours: FIX−/− mice, tail clip.

For the molecule `CC[C@@H](C)[C@H]1NC(=O)[C@H](NC(C)=O)CSSC[C@H](C(=O)N[C@H](Cc2ccc(O)cc2)C(=O)N[C@H](CCC(=O)O)C(N)=O)NC(=O)[C@@H](CC(=O)O)NC(=O)[C@@H](Cc2ccc(O)cc2)NC(=O)[C@@H](Cc2c[nH]c3ccccc23)NC(=O)[C@@H](Cc2ccccc2)NC(=O)[C@@H](CCSC)NC1=O` [Peptide B01, Ac-(cimfwydc)-ye-NH2] (Ac-[dC][dI][dM][dF][dW][dY][dD][dC][dY][dE]-NH2; disulfide 1-8), the “Thrombin peak time given as FEIBA equivalent activity” value is given as 35 mU/ml in [1] (peptide 12.5 μM), 62 mU/ml in [1] (peptide 25 μM), 89 mU/ml in [1] (peptide 50 μM) and 103 mU/ml in test [1] (peptide 100 μM). Besides, the “Activity in the Defined Intrinsic Thrombin Generation Assay” value in test [1] is “possess activity”. Besides, the “FEIBA EU (from clotting time)” value came out at 31 mU/ml in test [2] (compound 25 μM), 47 mU/ml in test [2] (compound 50 μM) and 94 mU/ml in [2] (compound 100 μM). In addition, the “Activity in the Defined Fibrin Deposition Assay” value in test [2] is given as “possess activity”.
For Ac-WDLYFEIVW-ttds-E [Peptide A07], the “Thrombin peak time given as FEIBA equivalent activity” value in [1] (peptide 6.25 μM) came to 415 mU/ml; in test [1] (peptide 12.5 μM), 585 mU/ml; in test [1] (peptide 25 μM), 750 mU/ml; in [1] (peptide 50 μM), 965 mU/ml; in test [1] (peptide 100 μM), 1129 mU/ml. Also, in [1], the “Activity in the Defined Intrinsic Thrombin Generation Assay” value was “possess activity”. Moreover, the “Peak IIa FVIII EU” value in the test with FVIII deficient plasma (peptide 50 μM) and with FVIII deficient plasma (peptide 100 μM) was “BLS (BLS = below lowest standard.)” in each case. Moreover, the “Peak Time FVIII EU” value with FVIII deficient plasma (peptide 50 μM) and in the test on FVIII deficient plasma (peptide 100 μM) was “BLS (BLS = below lowest standard.)” each time. Also, the “Peak IIa FEIBA EU” value with FVIII inhibited plasma (peptide 50 μM) and with FVIII inhibited plasma (peptide 100 μM) was “BLS (BLS = below lowest standard.)” each time. Further, the “Peak IIa FVIIa EU” value in the test with FVIII inhibited plasma (peptide 50 μM) was “BLS (BLS = below lowest standard.)”; in the test with FVIII inhibited plasma (peptide 100 μM), 0.1 nM. Also, the “Peak Time FEIBA EU” value in the test on FVIII inhibited plasma (peptide 50 μM) and in the test with FVIII inhibited plasma (peptide 100 μM) was “BLS (BLS = below lowest standard.)” in each case. Also, the “Peak Time FVIIa EU” value with FVIII inhibited plasma (peptide 50 μM) and in the test on FVIII inhibited plasma (peptide 100 μM) was “BLS (BLS = below lowest standard.)” in each case. In the test on FVIII inhibited plasma (summary, FVIII inhibited or deficient plasma), the “Activity in the Defined Dual-Pathway Thrombin Generation Assay” value was “possess activity”. Moreover, the “Stimulation of thrombin generation” value is recorded as “+” in test [3]; “−” in [4]; “+” in test [5]; “+” in test [6]; “+” in [7]. In addition, the “FEIBA EU (from clotting time)” value in [2] (compound 12.5 μM) amounted to 268 mU/ml; in [2] (compound 25 μM) it was 246 mU/ml; in test [2] (compound 50 μM), 199 mU/ml. The “Activity in the Defined Fibrin Deposition Assay” value in test [2] is listed as “possess activity”.
As to “Immunine: purified plasma FIX preparation (Baxter AG. Austria)”, in the test with FIX−/− mice (50, 100 or 200 U/kg i.v.), the “Blood loss over the 62 minutes after tail clip” value is “dose-dependent reduction”. Besides, in the test with FIX−/− mice (50-200 U/kg), the “Bleeding parameters and survival” value is “dose dependently improves”. Further, in the test with FIX−/− mice (50 U/kg i.v.), the “Survival (%) 2 hours” value is given as 94%, the “Survival (%) 4 hours” value was 69%, the “Survival (%) 24 hours” value was 63% and the “Survival (%) 48 hours” value was determined as 63%. For the same molecule, in the test on FIX−/− mice (100 U/kg i.v.), the “Survival (%) 2 hours” value was 100%, the “Survival (%) 4 hours” value is on record as 100%, the “Survival (%) 24 hours” value is recorded as 94% and the “Survival (%) 48 hours” value is listed as 94%. Besides, in the test with FIX−/− mice (200 U/kg i.v.), the “Survival (%) 2 hours” value came out at 100%, the “Survival (%) 4 hours” value was 100%, the “Survival (%) 24 hours” value stood at 100% and the “Survival (%) 48 hours” value stood at 100%.
